Results on 1 compound are retold here after US12016974B2, “Nitric oxide releasing surfaces for decreased fouling, thrombosis, and infection of medical devices” (priority 2016, dated 2024).

≈ marks a conversion by molar mass, not a printed value.

A short description of series [1]: Solubility of SNAP in silicone oil. The class given is physicochemical. The settings on record: oil or lipid, thermodynamic from solid. How it is done:
Leaching of SNAP from the silicone tubing was repeated during the oil swelling process as well, to ensure large amounts of SNAP were not lost during the 3-day swelling period. Sections of SNAP impregnated tubing were massed and placed in 4 mL of silicone oil. The absorbance spectra of silicone oil were taken to ensure no interference would be seen between the SNAP maxima and the oil. […] Therefore, the same calibration curve of SNAP in PBS-EDTA was used for determining SNAP concentration in the silicone oil. Solubility of SNAP in silicone oil was determined by adding 10 mg/mL and put on a vortex mixer for 2 min. The suspension was then centrifuged (10 min, 3000 rpm), and a 1 mL sample of the silicone oil was taken for UV vis spectroscopy.

The conditions of series [2]: after 6 months at room temperature; cited from earlier work.

In the case of `CC(=O)N[C@@H](C(=O)O)C(C)(C)SN=O` (racemic) [SNAP, S-nitroso-N-acetylpenicillamine], the concentration in solution in series [1] (solubility at 2 min) came to 0.4 µg/mL (≈ 1.82 µM). For the same compound, the “SNAP activity retained within a polymer matrix” value in series [2] is on record as 87%.
